Experimental findings from paper PMC11984407, “A natural small molecule isoginkgetin alleviates hypercholesterolemia and atherosclerosis by targeting ACLY” (Theranostics, 2025) are described below.

The test system of series [1] is primary hepatocytes from C57BL/6J mouse. The series is described as follows: CCK8 cell viability, primary hepatocytes. The format is cell-based. The note with it: concentrations below 7.5 μmol/L, 12 h. The procedure: The cellular viability was assessed by conducting CCK8 assays in primary hepatocytes from C57BL/6J mouse and HepG2 cell line. Specifically, 2,000 cells per well were plated in 96-well plates and cultured with different concentrations of ISOGK for 12 h. Following this, cell absorption was quantified using a CCK8 kit (CA1210, Solarbio, Beijing, China), adhering strictly to the manufacturer's guidelines. The presented data represents the findings from three independent experiments, with each experiment consisting of four replicates.

The target of a further series is T1, ACLY (Mus musculus, UniProt Q91V92).
T1 sequence (Q91V92 1-1091): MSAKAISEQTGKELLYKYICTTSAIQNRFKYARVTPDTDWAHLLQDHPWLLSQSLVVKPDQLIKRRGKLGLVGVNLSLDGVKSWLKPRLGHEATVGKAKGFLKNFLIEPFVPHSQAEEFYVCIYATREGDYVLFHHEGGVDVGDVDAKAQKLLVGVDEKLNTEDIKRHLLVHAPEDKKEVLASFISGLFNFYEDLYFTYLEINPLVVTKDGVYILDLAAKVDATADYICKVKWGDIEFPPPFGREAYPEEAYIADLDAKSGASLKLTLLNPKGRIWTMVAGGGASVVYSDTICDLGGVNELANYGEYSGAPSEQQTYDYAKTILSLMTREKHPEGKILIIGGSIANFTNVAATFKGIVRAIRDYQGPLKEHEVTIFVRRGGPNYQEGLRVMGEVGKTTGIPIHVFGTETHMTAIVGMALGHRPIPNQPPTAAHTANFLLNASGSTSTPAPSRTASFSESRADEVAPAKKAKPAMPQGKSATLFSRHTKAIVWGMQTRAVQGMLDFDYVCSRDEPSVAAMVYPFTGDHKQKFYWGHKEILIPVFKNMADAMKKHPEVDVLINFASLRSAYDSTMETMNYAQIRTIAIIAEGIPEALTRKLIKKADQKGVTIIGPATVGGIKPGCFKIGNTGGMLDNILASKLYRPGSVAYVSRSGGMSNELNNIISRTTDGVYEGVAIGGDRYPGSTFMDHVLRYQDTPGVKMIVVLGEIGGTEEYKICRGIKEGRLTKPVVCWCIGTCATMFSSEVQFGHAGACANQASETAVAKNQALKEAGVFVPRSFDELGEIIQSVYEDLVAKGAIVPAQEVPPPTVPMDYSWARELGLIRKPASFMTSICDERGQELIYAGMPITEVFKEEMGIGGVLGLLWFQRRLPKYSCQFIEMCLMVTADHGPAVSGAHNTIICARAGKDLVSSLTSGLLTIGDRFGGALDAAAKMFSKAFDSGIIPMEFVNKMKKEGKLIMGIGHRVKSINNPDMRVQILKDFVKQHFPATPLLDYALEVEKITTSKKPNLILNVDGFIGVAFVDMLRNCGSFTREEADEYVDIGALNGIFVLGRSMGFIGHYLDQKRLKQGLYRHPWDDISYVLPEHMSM
The series is described as follows: ACLY activity in vivo, mouse liver extracts (MDH-coupled method). More on the design: from tissue; host or cells: liver of Apoe-/- mice dosed with ISOGK. The note with it: male and female Apoe-/- mice, 20 mg/kg/day, 8 weeks. As to the method: The activity of the ACLY enzyme was assayed utilizing malate dehydrogenase (MDH)-coupled method kits (BC4240, Solarbio, Beijing, China). In summary, liver extracts were incubated in a reaction buffer comprising 20 mM citrate, 10 mM MgCl₂, 10 mM DTT, 0.5 U/ml of malic dehydrogenase, 0.33 mM CoASH, and 0.14 mM NADH, both in the presence and absence of 5 mM ATP. The quantity of oxaloacetate produced by ACLY catalysis was determined by measuring the alteration in absorbance at 340 nm, which corresponds to the depletion of NADH during the MDH-catalyzed reaction. After accounting for background variations in absorbance in the absence of ATP, the relative ACL activities were computed by normalizing the data to the weight of the liver tissue.

The next series addresses T2, recombinant ACLY protein (Homo sapiens, UniProt P53396).
T2 sequence (P53396 1-1101): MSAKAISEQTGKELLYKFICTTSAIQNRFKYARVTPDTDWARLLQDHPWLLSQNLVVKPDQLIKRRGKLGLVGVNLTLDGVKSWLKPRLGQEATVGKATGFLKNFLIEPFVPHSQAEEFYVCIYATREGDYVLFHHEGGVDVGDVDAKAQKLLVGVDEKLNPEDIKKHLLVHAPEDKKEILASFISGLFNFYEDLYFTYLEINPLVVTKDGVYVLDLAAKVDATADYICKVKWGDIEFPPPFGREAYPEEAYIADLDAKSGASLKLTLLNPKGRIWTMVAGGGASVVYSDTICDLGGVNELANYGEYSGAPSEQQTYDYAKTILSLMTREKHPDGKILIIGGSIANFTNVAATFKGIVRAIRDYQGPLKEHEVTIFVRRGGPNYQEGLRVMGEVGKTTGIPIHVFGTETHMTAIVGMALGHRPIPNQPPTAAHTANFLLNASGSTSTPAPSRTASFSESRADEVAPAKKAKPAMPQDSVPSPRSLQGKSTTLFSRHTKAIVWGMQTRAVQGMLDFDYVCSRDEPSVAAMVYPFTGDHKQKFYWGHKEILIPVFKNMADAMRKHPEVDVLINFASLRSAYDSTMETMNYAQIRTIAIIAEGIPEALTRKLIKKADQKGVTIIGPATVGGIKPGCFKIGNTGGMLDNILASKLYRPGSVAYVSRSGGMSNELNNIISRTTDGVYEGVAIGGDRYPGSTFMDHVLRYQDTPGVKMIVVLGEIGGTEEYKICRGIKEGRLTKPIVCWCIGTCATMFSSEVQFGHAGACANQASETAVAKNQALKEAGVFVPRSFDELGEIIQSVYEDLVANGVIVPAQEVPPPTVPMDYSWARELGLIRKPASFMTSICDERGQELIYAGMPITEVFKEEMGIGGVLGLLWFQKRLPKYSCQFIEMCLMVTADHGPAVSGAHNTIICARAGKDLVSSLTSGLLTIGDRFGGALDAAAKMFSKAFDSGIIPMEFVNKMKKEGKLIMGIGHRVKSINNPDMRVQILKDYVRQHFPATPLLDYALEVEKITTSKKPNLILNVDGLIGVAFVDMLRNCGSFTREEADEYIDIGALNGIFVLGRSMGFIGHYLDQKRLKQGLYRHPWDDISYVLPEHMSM
Briefly: Surface plasmon resonance (OpenSPR). Particulars: SPR, 1:1 Langmuir model; read-out: equilibrium dissociation constant (KD). The format is binding. As to the method:
The interaction between isoginkgetin and ACLY was examined using an OpenSPR instrument (Nicaya, Canada). The recombinant ACLY protein was immobilized on a carboxyl sensor chip (SEN-AU-100-3-COOH; Nicaya, Canada) via a standard amine coupling method. Isoginkgetin was injected into the running buffer at various concentrations (ranging from 0.5 to 8 μM) at a flow rate of 20 μL/min. The interaction parameter KD was determined using TraceDrawer evaluation software based on the 1:1 Langmuir binding model.
In general terms: Surface plasmon resonance follows binding to a sensor surface in real time, without labels.

One may read the Kd as a measure of binding affinity in units of concentration.

Take `COc1ccc(-c2cc(=O)c3c(O)cc(O)c(-c4cc(-c5cc(=O)c6c(O)cc(O)cc6o5)ccc4OC)c3o2)cc1` [ISOGK, Isoginkgetin]: the “cytotoxicity (CCK-8)” value in series [1] is “no significant cytotoxicity”. Besides, the “ACLY enzyme activity in liver tissue” value on ACLY is recorded as “significantly inhibits ACLY activity”. Besides, the Kd on recombinant ACLY protein came to 5.1 µM.
